Results taken from US20220184080A1 (Aerovate Therapeutics, Inc., priority 2019, published 2022).

Test: thermal stability of imatinib salt forms
Assay type: physicochemical
Conditions: method not described

| thermal stability | Compound |
| --- | --- |
| suitable thermal stability | O=S(=O)(O)CCO [isethionate] |
| suitable thermal stability | malate |
| suitable thermal stability | malonate |

| Compound | thermal stability |
| --- | --- |
| tartrate | suitable thermal stability |
